Measured values taken from ChEMBL document CHEMBL5321213, “Nicolaioidesin C: An Antiausterity Agent Shows Promising Antitumor Activity in a Pancreatic Cancer Xenograft Mouse Model” (J Nat Prod, 2023).
Calls of active or inactive are those of the source. No cut-off for these calls is given here.

What was measured:
MIA PaCa-2 [1] = experiment: Inhibition of Akt/mTOR signaling pathway in human MIA PaCa-2 cells in DMEM media assessed as reduction in AKT phosphorylation at S473 residue at 5 to 20 uM measured after 6 hrs by Western blot analysis; assay type: cell-based; conditions: dose 5-20 µM
MIA PaCa-2 [2] = experiment: Antitumor activity against human MIA PaCa-2 cells xenografted in athymic BALB/c-nu mouse assessed as fold change in 5'-methylthioadenosine level in tumor at 10 mg/kg/day, ip administered five times per week for 4 weeks by LC-MS analysis; assay type: functional
MIA PaCa-2 [3] = experiment: Antitumor activity against human MIA PaCa-2 cells xenografted in athymic BALB/c-nu mouse assessed as reduction in mTOR phosphorylation at S2481 residue in tumor at 10 mg/kg/day, ip administered five times per week for 4 weeks by Western blot analysis; assay type: functional, organism-based
MIA PaCa-2 [4] = experiment: Antitumor activity against human MIA PaCa-2 cells xenografted in athymic BALB/c-nu mouse assessed as fold change in glutamic acid level in tumor at 2 mg/kg/day, ip administered five times per week for 4 weeks by LC-MS analysis; assay type: functional
MIA PaCa-2 [5] = experiment: Antitumor activity against human MIA PaCa-2 cells xenografted in athymic BALB/c-nu mouse assessed as fold change in glutamic acid level in tumor at 10 mg/kg/day, ip administered five times per week for 4 weeks by LC-MS analysis; assay type: functional
MIA PaCa-2 [6] = experiment: Antitumor activity against human MIA PaCa-2 cells xenografted in athymic BALB/c-nu mouse assessed as fold change in 3-sulfolactic acid level in tumor at 2 mg/kg/day, ip administered five times per week for 4 weeks by LC-MS analysis; assay type: functional
MIA PaCa-2 [7] = experiment: Antitumor activity against human MIA PaCa-2 cells xenografted in athymic BALB/c-nu mouse assessed as reduction in LC3-1 level in tumor at 2 to 10 mg/kg/day, ip administered five times per week for 4 weeks by immunohistochemistry analysis; assay type: functional, organism-based; conditions: dose 2-10 mg/kg/day
MIA PaCa-2 [8] = experiment: Antitumor activity against human MIA PaCa-2 cells xenografted in athymic BALB/c-nu mouse assessed as fold change in 5'-methylthioadenosine level in tumor at 2 mg/kg/day, ip administered five times per week for 4 weeks by LC-MS analysis; assay type: functional
PANC-1 [9] = experiment: Inhibition of autophagy in human PANC-1 cells in nutrient-deprived medium assessed as downregulation of LC3-II protein expression measured after 6 hrs by Western blot analysis; assay type: functional, cell-based; conditions: dose 5-20 µM
PANC-1 [10] = experiment: Preferential cytotoxicity against human PANC-1 cells in nutrient-deprived medium assessed as alteration in cell morphology by measuring rupture of cell membrane at 5 uM measured after 24 hrs by acridine orange and ethidium bromide dual fluorescent staining based imaging analysis; assay type: functional
MIA PaCa-2 [11] = experiment: Antitumor activity against human MIA PaCa-2 cells xenografted in athymic BALB/c-nu mouse assessed as fold change in uracil level in tumor at 10 mg/kg/day, ip administered five times per week for 4 weeks by LC-MS analysis; assay type: functional
MIA PaCa-2 [12] = experiment: Antitumor activity against human MIA PaCa-2 cells xenografted in athymic BALB/c-nu mouse assessed as fold change in valine level in tumor at 2 mg/kg/day, ip administered five times per week for 4 weeks by LC-MS analysis; assay type: functional
MIA PaCa-2 [13] = experiment: Antitumor activity against human MIA PaCa-2 cells xenografted in athymic BALB/c-nu mouse assessed as fold change in phenyl alanine level in tumor at 10 mg/kg/day, ip administered five times per week for 4 weeks by LC-MS analysis; assay type: functional
MIA PaCa-2 [14] = experiment: Antitumor activity against human MIA PaCa-2 cells xenografted in athymic BALB/c-nu mouse assessed as fold change in 2'-deoxycytidine level in tumor at 10 mg/kg/day, ip administered five times per week for 4 weeks by LC-MS analysis; assay type: functional
MIA PaCa-2 [15] = experiment: Antitumor activity against human MIA PaCa-2 cells xenografted in athymic BALB/c-nu mouse assessed as fold change in hypoxanthine level in tumor at 2 mg/kg/day, ip administered five times per week for 4 weeks by LC-MS analysis; assay type: functional
MIA PaCa-2 [16] = experiment: Antitumor activity against human MIA PaCa-2 cells xenografted in athymic BALB/c-nu mouse assessed as fold change in serine level in tumor at 10 mg/kg/day, ip administered five times per week for 4 weeks by LC-MS analysis; assay type: functional
PANC-1 [17] = experiment: Antimetastatic activity in human PANC-1 cells in DMEM media assessed as inhibition of colony formation at 10 uM incubated for 24 hrs followed by replacement with fresh medium and measured after 10 days by crystal violet staining-based assay relative to control; assay type: functional
MIA PaCa-2 [18] = experiment: Antimetastatic activity in human MIA PaCa-2 cells in nutrient-rich medium assessed as open wound area at 20 uM measured every 15 mins for 24 hrs by live cell imaging analysis (reference value: 62%); assay type: functional
MIA PaCa-2 [19] = experiment: Antitumor activity against human MIA PaCa-2 cells xenografted in athymic BALB/c-nu mouse assessed as fold change in cytidine diphosphate ethanolamine level in tumor at 10 mg/kg/day, ip administered five times per week for 4 weeks by LC-MS analysis; assay type: functional
[20] = Toxicity in athymic BALB/c-nu mouse xenografted with human MIA PaCa-2 cells assessed as animal death at 2 to 10 mg/kg/day, ip administered five times per week for 4 weeks; assay type: organism-based; conditions: in vivo, 672 h, dose 2-10 mg/kg/day
MIA PaCa-2 [21] = experiment: Antitumor activity against human MIA PaCa-2 cells xenografted in athymic BALB/c-nu mouse assessed as fold change in benzoic acid level in tumor at 10 mg/kg/day, ip administered five times per week for 4 weeks by LC-MS analysis; assay type: functional
PANC-1 [22] = experiment: Preferential cytotoxicity against human PANC-1 cells in nutrient-deprived medium assessed as alteration in cell morphology by measuring cell blebbing at 5 uM measured after 24 hrs by acridine orange and ethidium bromide dual fluorescent staining based imaging analysis; assay type: functional
PANC-1 [23] = experiment: Antimetastatic activity in human PANC-1 cells in nutrient-rich medium assessed as open wound area at 20 uM measured every 15 mins for 24 hrs by live cell imaging analysis (reference value: 16%); assay type: functional
MIA PaCa-2 [24] = experiment: Preferential cytotoxicity against human MIA PaCa-2 cells in nutrient-deprived medium measured after 24 hrs by WST-8 cell counting analysis; assay type: functional
MIA PaCa-2 [25] = experiment: Inhibition of Akt/mTOR signaling pathway in human MIA PaCa-2 cells in nutrient-deprived medium assessed as reduction in mTOR phosphorylation at S2481 residue measured after 6 hrs by Western blot analysis; assay type: cell-based; conditions: dose 5-20 µM
MIA PaCa-2 [26] = experiment: Antitumor activity against human MIA PaCa-2 cells xenografted in athymic BALB/c-nu mouse assessed as fold change in cytidine 5'-monophosphate-Neu5Ac level in tumor at 2 mg/kg/day, ip administered five times per week for 4 weeks by LC-MS analysis; assay type: functional
PANC-1 [27] = experiment: Antimetastatic activity in human PANC-1 cells in DMEM media assessed as inhibition of colony formation at 20 uM incubated for 24 hrs followed by replacement with fresh medium and measured after 10 days by crystal violet staining-based assay relative to control; assay type: functional
PANC-1 [28] = experiment: Preferential cytotoxicity against human PANC-1 cells in nutrient-deprived medium measured after 24 hrs by WST-8 cell counting analysis; assay type: functional
MIA PaCa-2 [29] = experiment: Preferential cytotoxicity against human MIA PaCa-2 cells in nutrient-deprived medium assessed as alteration in cell morphology by measuring rupture of cell membrane at 5 uM measured after 24 hrs by acridine orange and ethidium bromide dual fluorescent staining based imaging analysis; assay type: functional

Structure (SMILES): COc1cc(O)c(C(=O)[C@@H]2CC=C(CCC=C(C)C)C[C@H]2c2ccccc2)c(O)c1
- inhibition (MIA PaCa-2 [1]): inactive
- fold change (FC) (MIA PaCa-2 [2]): 0.25
- Activity (MIA PaCa-2 [3]): Active
- fold change (FC) (MIA PaCa-2 [4]): 0.41
- fold change (FC) (MIA PaCa-2 [5]): 0.25
- fold change (FC) (MIA PaCa-2 [6]): 0.48
- Activity (MIA PaCa-2 [7]): Active
- fold change (FC) (MIA PaCa-2 [8]): 0.33
- inhibition (PANC-1 [9]): Dose-Dependent Effect
- Activity (PANC-1 [10]): Active
- fold change (FC) (MIA PaCa-2 [11]): 0.09
- fold change (FC) (MIA PaCa-2 [12]): 0.44
- fold change (FC) (MIA PaCa-2 [13]): 0.43
- fold change (FC) (MIA PaCa-2 [14]): 0.31
- fold change (FC) (MIA PaCa-2 [15]): 0.57
- fold change (FC) (MIA PaCa-2 [16]): 0.5
- inhibition at 10 µM (PANC-1 [17]): 67%
- Activity (MIA PaCa-2 [18]): 87%
- fold change (FC) (MIA PaCa-2 [19]): 0.16
- Activity [20]: Non-Toxic
- fold change (FC) (MIA PaCa-2 [21]): 0.43
- Activity (PANC-1 [22]): Active
- Activity (PANC-1 [23]): 36%
- PC50 (MIA PaCa-2 [24]): 2.9 µM
- inhibition (MIA PaCa-2 [25]): Dose-Dependent Effect
- fold change (FC) (MIA PaCa-2 [26]): 0.43
- inhibition at 20 µM (PANC-1 [27]): 82%
- PC50 (PANC-1 [28]): 3.4 µM
- Activity (MIA PaCa-2 [29]): Active
